Measured values: patent EP1060190B1, “NEW SALT FORMS OF (2E)- 5-AMINO-5- METHYLHEX-2- ENOIC ACID N-METHYL-N-((1R)-1-(N- METHYL-N-((1R)-1-(METHYLCARBAMOYL)-2- PHENYLETHYL)CARBAMOYL)-2- (2-NAPHTYL)ETHYL)AMIDE” (NOVO NORDISK A/S, priority 1998, dated 1999)
Counter-ions that a name gives are not always drawn.

Experiment: Exposure of the anhydrous salt form to high humidity (solid form stability)
Format: physicochemical
Conditions: e.g. 10 weeks at 98% RH

Exposure of the anhydrous form to high humidity: produced the hydrous form
Structure (SMILES): CNC(=O)[C@@H](Cc1ccccc1)N(C)C(=O)[C@@H](Cc1ccc2ccccc2c1)N(C)C(=O)/C=C/CC(C)(C)N [compound I,hfum, compound I,hemi fumarate]
